Key:
[1] = system: root-knot nematode Meloidogyne incognita; assay: Soil nematicide assay targeting root-knot nematode Meloidogyne incognita on tomato (soil drench); assay type: in vivo; details: tomato plants, one month after inoculation with 1000 J2 larvae
Text: Soil nematicide assay targeting root-knot nematode Meloidogyne incognita on tomato The test compounds were solubilized in acetone and diluted with water and surfactant to the required test concentrations. The test solution was applied as a soil drench to transplanted tomato plants in cells with sandy loam mixed with sand. One thousand root-knot J2 larvae were applied as an aqueous suspension drenched on the soil surface. The plants were maintained in the greenhouse and, one month after inoculation, the plant roots were washed free of soil. The root-knot galls on the root system of each plant were counted. Treatments were replicated three times. Percent control of root-knot was calculated for the treated plants relative to control plants treated with the acetone-surfactant carrier using the following formula: % control of root knot galls=100×((median number of galls on control plants−median number of galls on treated plants)/median number of galls on control plants) In this test, compound A which is known from EP-A 1 000 946 as example 1 acted as comparison active ingredient.

[2] = system: root-knot nematode Meloidogyne sp; assay: Soil nematicide assay targeting root-knot nematode Meloidogyne sp on tomato (granular formulation); assay type: in vivo; details: 1 kg/ha, granular formulation of 5% active ingredient on gypsum carrier, infested soil, tomato plants, visual estimation
Procedure: Soil nematicide assay targeting root-knot nematode Meloidogyne sp on tomato
The test compounds were applied as granular formulations of 5% active ingredient on a gypsum carrier to soil infested with root-knot nematodes. Tomato plants were transplanted into the soil. After galling developed in untreated control plants, tomato plants were harvested and the roots assessed for root knot galling. Based on visual estimation, the percentage of the tomato root-mass that was galled was determined. Percent control root-knot was calculated for the treated plants relative to untreated control plants using the following formula: % control of root knot galling=100×((galling level of untreated plants−galling level of treated plants)/galling level of untreated plants)
In this test, compound A which is known from EP-A 1 000 946 as example 1 acted as comparison active ingredient.

Row | SMILES | % control of root knot galls ([1]; 0.16 kg/ha) [%] | % control of root knot galls ([1]; 0.63 kg/ha) [%] | % control of root knot galling [2] [%]
1 | FC(F)=C(F)CCSc1nc2cccnc2s1 [I.1—1, 2-(3,4,4-Trifluoro-but-3-enylsulfanyl)-thiazolo[5,4-b]pyridine] | 94 | 100 | 47
2 | FC(F)=C(F)CCSc1nc2ncccc2s1 [compound A] | 13 | 71 | 25

Source: patent US7105524B2, “Pesticidal and parasiticidal di-and trifluorosubstituted alkene compounds” (BASF Aktiengesellschaft, priority 2001, dated 2006)
